The values that follow come from patent US8067413B2, “9-substituted-8-oxo-adenine compounds as toll-like receptor (TLR7 ) modulators” (AstraZeneca AB, priority 2007, dated 2011).

What is called pEC50 is −log10 of the EC50, conventionally taken in molar units.

pEC50: −log10 of the molar value.

This test addresses T1, Recombinant human TLR7 (Homo sapiens, UniProt Q9NYK1).
T1 construct: expressed in transfected cells; host or cells: HEK293 cell line stably expressing the pNiFty2-SEAP reporter plasmid; TLR7 in pUNO vector
T1 sequence (Q9NYK1 27-1049): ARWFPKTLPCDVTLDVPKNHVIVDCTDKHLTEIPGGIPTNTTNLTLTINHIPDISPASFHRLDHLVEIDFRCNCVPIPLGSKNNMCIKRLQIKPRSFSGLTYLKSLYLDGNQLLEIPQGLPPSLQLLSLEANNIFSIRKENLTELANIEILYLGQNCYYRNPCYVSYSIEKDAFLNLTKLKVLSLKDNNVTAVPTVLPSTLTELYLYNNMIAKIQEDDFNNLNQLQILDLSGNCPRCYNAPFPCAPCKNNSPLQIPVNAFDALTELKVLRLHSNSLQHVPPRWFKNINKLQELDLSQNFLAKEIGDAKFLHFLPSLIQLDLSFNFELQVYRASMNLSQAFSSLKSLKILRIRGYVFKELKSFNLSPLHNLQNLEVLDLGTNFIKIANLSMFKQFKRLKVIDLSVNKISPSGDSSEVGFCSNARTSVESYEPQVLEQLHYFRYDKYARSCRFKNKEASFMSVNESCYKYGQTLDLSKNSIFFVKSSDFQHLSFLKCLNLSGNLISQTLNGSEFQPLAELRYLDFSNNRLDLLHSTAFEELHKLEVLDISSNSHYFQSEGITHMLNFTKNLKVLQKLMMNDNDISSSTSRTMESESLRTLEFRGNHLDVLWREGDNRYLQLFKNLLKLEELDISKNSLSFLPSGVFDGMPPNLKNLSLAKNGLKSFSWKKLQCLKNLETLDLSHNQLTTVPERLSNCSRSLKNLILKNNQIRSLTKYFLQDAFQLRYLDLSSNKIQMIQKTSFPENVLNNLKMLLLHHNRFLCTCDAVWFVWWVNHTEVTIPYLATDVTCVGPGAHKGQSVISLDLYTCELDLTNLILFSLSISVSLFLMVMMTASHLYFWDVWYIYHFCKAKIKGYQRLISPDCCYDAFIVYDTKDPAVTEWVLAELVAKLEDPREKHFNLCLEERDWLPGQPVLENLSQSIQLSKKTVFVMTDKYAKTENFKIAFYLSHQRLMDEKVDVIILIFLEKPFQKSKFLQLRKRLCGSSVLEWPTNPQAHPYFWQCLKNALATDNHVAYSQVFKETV
Put plainly: Human TLR7 Assay (SEAP reporter in HEK293 cells). The settings on record: HEK293 cell line stably expressing human TLR7 and pNiFty2-SEAP reporter; SEAP induction after overnight incubation at 37° C., 0.1% (v/v) DMSO. The test is classed as cell-based. The text has this: Recombinant human TLR7 was stably expressed in a HEK293 cell line already stably expressing the pNiFty2-SEAP reporter plasmid; integration of the reporter gene was maintained by selection with the antibiotic zeocin. The most common variant sequence of human TLR7 (represented by the EMBL sequence AF240467) was cloned into the mammalian cell expression vector pUNO and transfected into this reporter cell-line. Transfectants with stable expression were selected using the antibiotic blasticidin. In this reporter cell-line, expression of secreted alkaline phosphatase (SEAP) is controlled by an NFkB/ELAM-1 composite promoter comprising five NFkB sites combined with the proximal ELAM-1 promoter. TLR signaling leads to the translocation of NFkB and to activation of the promoter results in expression of the SEAP gene. TLR7-specific activation was assessed by determining the level of SEAP produced following overnight incubation of the cells at 37° C. with the standard compound in the presence of 0.1% (v/v) dimethylsulfoxide (DMSO). Concentration dependent induction of SEAP production by compounds was expressed as the concentration of compound which produced half of the maximal level of SEAP induction for that compound (pEC50)
On to `CCCCOc1nc(N)c2[nH]c(=O)n(CCCN3CCCC3)c2n1` [Example 1, 6-Amino-2-butoxy-9-(3-pyrrolidin-1-ylpropyl)-7,9-dihydro-8H-purin-8-one], for which the pEC50 was 6.40. With `CCCCOc1nc(N)c2[nH]c(=O)n(CCCN3CCC[C@H]3C(=O)N(C)C)c2n1` [Example 2, 1-[3-(6-Amino-2-butoxy-8-oxo-7,8-dihydro-9H-purin-9-yl)propyl]-N,N-dimethyl-L-prolinamide] the figure was 5.50. With `CCCCOc1nc(N)c2[nH]c(=O)n(CCCN3CCC[C@H]3COC)c2n1` [Example 3, 6-Amino-2-butoxy-9-{3-[(25)-2-(methoxymethyl)pyrrolidin-1-yl]propyl}-7,9-dihydro-8H-purin-8-one] the figure was 5.60; with `CCCCOc1nc(N)c2[nH]c(=O)n(CCCN(C)CC(=O)N(C)C)c2n1` [Example 4, N^2-[3-(6-Amino-2-butoxy-8-oxo-7,8-dihydro-9H-purin-9-yl)propyl]-N^1,N^1,N^2-trimethylglycinamide], 6.60.
